Assay results taken from ChEMBL document CHEMBL1154348, “Arginine-pyrimidine conjugates with therapeutic and prophylactic activity in lethal bacterial infections” (Bioorg Med Chem Lett, 2009).
Calls of active or inactive are those of the source. No cut-off for these calls is given here.

Assays:
[1] = Therapeutic efficacy against Staphylococcus aureus infected lethal mouse sepsis model assessed as survival at 30 mg/kg, ip administered 0.5 hrs and 4 hrs post infection; type: organism-based; design: dose 30 mg/kg, route intraperitoneal; conditions: in vivo
[2] = Therapeutic efficacy against Escherichia coli infected lethal mouse sepsis model assessed as survival at 30 mg/kg, ip administered 0.5 hrs and 4 hrs post infection; type: organism-based; design: dose 30 mg/kg, route intraperitoneal; conditions: in vivo
Escherichia coli [3] = test: Antibacterial activity against Escherichia coli infected lethal mouse sepsis model assessed as reduction in bacterial load in mouse blood at 50 mg/kg, ip administered as single dose 0.5 hrs post infection measured after 5 hrs; type: functional; conditions: route intraperitoneal
Escherichia coli [4] = test: Antibacterial activity against Escherichia coli infected lethal mouse sepsis model assessed as reduction in bacterial load in mouse blood at 50 mg/kg, ip administered 0.5 hrs and 4 hrs post infection measured after 5 hrs; type: functional; conditions: route intraperitoneal
Pseudomonas aeruginosa = test: Antibacterial activity against Pseudomonas aeruginosa infected in cyclophosphamide-treated immunocompromized mouse assessed as inhibition of wound infection; type: functional, organism-based
Streptococcus pyogenes = test: Antibacterial activity against Streptococcus pyogenes infected in cyclophosphamide-treated immunocompromized mouse assessed as inhibition of muscle infection; type: functional, organism-based; conditions: Muscle tissue
Escherichia coli [5] = test: Prophylactic efficacy against Escherichia coli infected lethal mouse sepsis model assessed as survival at 50 mg/kg, ip administered 3 hrs before infection; type: functional; conditions: route intraperitoneal
Escherichia coli [6] = test: Prophylactic efficacy against Escherichia coli infected lethal mouse sepsis model assessed as survival at 50 mg/kg, ip administered 2 hrs before infection; type: functional; conditions: route intraperitoneal
Escherichia coli [7] = test: Prophylactic efficacy against Escherichia coli infected lethal mouse sepsis model assessed as survival at 50 mg/kg, ip administered 1 hr before infection; type: functional; conditions: route intraperitoneal
Escherichia coli [8] = test: Prophylactic efficacy against Escherichia coli infected lethal mouse sepsis model assessed as survival at 50 mg/kg, ip administered 0.5 hrs before infection; type: functional; conditions: route intraperitoneal
Mus musculus [9] = test: Acute toxicity in mouse up to 450 mg/kg, ip after 5 days; type: organism-based; design: dose 450 mg/kg, route intraperitoneal; conditions: in vivo, 120 h
Plasma = test: Stability in mouse plasma after 3 hrs; type: ADME, cell-free
[10] = Half life in mouse at 100 mg/kg, ip after 30 mins; type: ADME, organism-based; design: dose 100 mg/kg, route intraperitoneal; conditions: in vivo
[11] = Cmax in mouse at 100 mg/kg, ip after 30 mins; type: ADME, organism-based; design: dose 100 mg/kg, route intraperitoneal; conditions: in vivo
Mus musculus [12] = test: Subchronic toxicity in mouse up to 450 mg/kg, ip after 5 days; type: organism-based; design: dose 450 mg/kg, route intraperitoneal; conditions: in vivo, 120 h
Escherichia coli [13] = test: Antibacterial activity against Escherichia coli; type: functional
Staphylococcus aureus = test: Antibacterial activity against Staphylococcus aureus; type: functional

Compound | Efficacy [1] | Efficacy [2] | CFU (Escherichia coli [3]) | CFU (Escherichia coli [4]) | Activity (Pseudomonas aeruginosa) | Activity (Streptococcus pyogenes) | Efficacy (Escherichia coli [5]) | Efficacy (Escherichia coli [6]) | Efficacy (Escherichia coli [7]) | Efficacy (Escherichia coli [8]) | Activity (Mus musculus [9]) | Stability (Plasma) | half-life [10] | Cmax [11] | Activity (Mus musculus [12]) | MIC (Escherichia coli [13]) | MIC (Staphylococcus aureus)
CN(CCCN(C)c1ncccn1)C(=O)[C@@H](N)CCCNC(=N)N | 60% | 80% | 2.7 ×10³ /ml | 3.7 ×10² /ml | inactive | inactive | 40% | 60% | 80% | 80% | Non-toxic | Stable | 1 h | 56 µg/mL | Non-toxic | > 250 µg/mL | > 250 µg/mL
CN(CCCNC(=O)[C@@H](N)CCCNC(=N)N)c1ncccn1 | 40% | 40% | – | – | – | – | – | – | – | – | – | – | – | – | – | – | –
O=C(O)c1cn(C2CC2)c2cc(N3CCNCC3)c(F)cc2c1=O [CIPROFLOXACIN] | 40% | 60% | – | – | – | – | – | – | – | – | – | – | – | – | – | – | –
